EP3572468B1, “CYANINE DYES AND THEIR USAGE FOR IN VIVO STAINING OF MICROORGANISMS” (PHILIPPS-UNIVERSITÄT MARBURG, priority 2018, dated 2019)

Columns and labels:
[1] = Aqueous solubility (remark); type: physicochemical; conditions: reason why the extinction coefficient was determined in DMSO
[2] = Molar extinction coefficient determination; type: physicochemical
Experimental: The concentration determination and measurement of full UV-Vis spectra were performed on a Tecan 20M at room temperature. The measurements were performed in a 1400 µL quarz cuvette with a pathlength of 1 cm in a volume of 1 mL.
For the accurate determination of our compounds 6-TramTO-3 the extinction coefficient was calculated. A specific amount (< 2.00 mg) of the compound was weighted on a Mettler Toledo XP6 and dissolved in a known amount of milli-Q water. Increasing amounts of such stock solution were added into a 1 mL cuvette filled with 1 ml of milli-Q water. The corresponding absorbance of each addition was measured on a Tecan Spark 20M at the maximum at 625 nm and without exceeding 10% of the initial volume. In all the cases the absorbance was between 0.1 and 1 AU. to be in concordance with Lambert-Beer law (equation E2). A = ε l c [formula]
In this equation (E2): A = absorbance of the solution; I = length of the cuvette; c = concentration; ε = molar extinction coefficient.
The lineal regression of the obtained absorbance measurements versus the concentrations of 6-TramTO-3 allowed us to obtain the molar extinction coefficient. These measurements were repeated three times independently i.e. from three different stock solutions. The mean extinction coefficient and the standard deviation of 6-TramTO-3 at a wavelength of 625 nm in milli-Q water was 59403 ±646 M^-1cm^-1.
The mean extinction coefficient and the standard deviation of 6-NH2TO-3 and 6-AzTO-3 were determined following the above described procedure. The extinction coefficient of 6-NH2TO-3 was determined in milli-Q water, whereas the extinction coefficient of 6-AzTO-3 was determined in DMSO due to its low aqueous solubility. […] For the spectrum of 6-AzTO-3 1% of DMSO was added for a better solubility. Fig. 20 and Fig. 21 show the linear regressions from the three independent measurements. Table 4 summarized the molar extinction coefficient obtained. Table 4: Determined mean extinction coefficients and standard deviations of 6-AzTO-3 in DMSO and 6-TramTO-3 and 6-NH2TO-3 in milli-Q water.

[3] = Fluorescence quantum yield, dye alone; type: physicochemical; conditions: reference compounds determined against each other; Atto 655 in PBS pH 7.4, Alexa Fluor 647 in 50 mM potassium phosphate pH 7.2 and 150 mM NaCl
Experimental: Fluorescence intensity values for the quantum yields were determined on an ISS PC1 spectrofluorometer with an ISS 11650 lamp connected to an ISS Simpson model 109 and an ISS 80011 photomulitplier connected to a MGW Lauda K2R D and an Amherst Scientific Corp. 7600F for cooling. A VWR Refrigerated Circ 1160S was connected for the cooling of the cuvette chamber. It was measured in a 1400 µL fluorescence cuvette of HellmaAnalytics (104F-QS) at 25°C using the following settings: increment: 2.0 nm; integration time: 1.0 s; excitation slit width: 0.25 mm; emission slit width: 0.5 mm; excitation wavelength 590 nm. The emission spectra were recorded from 610 to 750 nm. From all spectra the corresponding background signal was substracted. Absorbance values were measured on a Jasco V-650 UV-Vis Spectrophotometer equipped with a Jasco PAC-743 temperature controlled cell holder and a Julabo F250 cooling system. UV-Vis titration measurements were performed in a 1400 µL quarz cuvette with a pathlength of 1 cm at 25°C using the following settings: increment: 1.0 nm; bandwidth: 1.0 nm; scanning speed: 1000 nm/min; scanning mode: continuous. From all values, the corresponding background signal was subtracted. The values for the reference compounds were measured in duplicates, the ones for 6-TramTO-3 with and without dsDNACT in triplicates. The quantum yields of 6-TramTO-3 with (30 eq.) and without dsDNACT were determined in 10 mM Tris pH 7.6 and 50 mM KCI. All measurement were following the procedure of Horiba and using the equation E1: ΦX = ΦST ((GradX)/(GradST)) ((((ηX))^2)/(((ηST))^2)) [formula] where Φ = fluorescence quantum yield, η = refractive index of the used solvent, Grad = gradient from the plot of integrated fluorescence intensity vs. absorbance and the subscripts ST and X denote standard and tested sample. […]
Table 3: Determined slopes and corresponding quantum yields for the two reference compounds Alexa Flour® 647 and Atto 655 and for 6-TramTO-3 with and without dsDNACT.

[4] = Atto 655 in PBS pH 7.4; Alexa Fluor 647 in 50 mM potassium phosphate pH 7.2 and 150 mM NaCl; cited from earlier work
dsDNACT = conditions: previously obtained results for DNA intercalators with the same DNA (dsDNACT); cited from earlier work
E. coli = experiment: Resistance to standard antibiotics, bacterial dilutions spotted onto solid medium; type: cell-based, Escherichia coli; conditions: dilutions spotted onto LB solid medium supplemented with antibiotic, outgrowth 48 h
Experimental: (§1) Escherichia coli (E. coli) NEB5α (New England Biolabs) and antibiotic-resistant and -sensitive Klebsiella pneumoniae (K. pneumoniae) were cultured in Luria-Bertani (LB) solid medium (LB-Agar) overnight at 37°C. The source of the K. pneumoniae strands is of no relevance to the invention. The invention may be applied to all types of microorganisms (bacteria, viri, fungi etc.) or other cells, either contained within a sample or isolated from a sample. For staining, growth curve analysis and replating experiments bacteria were suspended in LB liquid medium at an OD600 nm of 1.0 and 800 µL were transferred into a culture tube containing 7.2 mL of LB liquid medium supplemented with DMSO or candidate dyes (2.5 µM) final concentration). Density of bacterial cultures was measured using an Ultrospec 10 Cell Density Meter with 600 nm LED source (Amersham Biosciences). For bacterial re-plating experiments bacteria were sampled at OD600 nm = 2.0 and 5 µL of indicated dilutions in LB-medium were spotted onto LB-agar plates (Fig. 5) or 100 µL were plated onto LB-agar plates followed by incubation at 37°C until colonies became visible.

[5] = system: antibiotic-sensitive K. pneumoniae; experiment: as above; type: cell-based, Klebsiella pneumoniae; conditions: the other (antibiotic-sensitive) K. pneumoniae strain; dilutions spotted onto LB solid medium supplemented with antibiotic, outgrowth 48 h
Experimental: as §1

[6] = system: multiresistant K. pneumoniae; experiment: as above; type: cell-based, Klebsiella pneumoniae; conditions: dilutions spotted onto LB solid medium supplemented with antibiotic, outgrowth 48 h
Experimental: as §1

bacteria = conditions: in vivo labeling of bacteria for macrophage uptake assays; indicative of toxicity; cited from earlier work
[7] = system: Escherichia coli (E. coli) NEB5α; experiment: Bacteria culture and staining: growth and FACS labeling of E. coli; type: cell-based; conditions: for bacterial growth in presence of dye: 2.5 µM dye in LB medium, OD600 over time, liquid and solid medium; for fluorescent labeling of live bacteria (FACS): 2.5 µM dye in culture medium, FACS at mid-exponential growth phase (OD600 = 2.0)
Experimental: as §1
Bacteria and macrophages were washed with PBS prior to flow cytometry and analysed using a Guava easyCyte flow cytometer (Millipore). FCS3.0 files were analysed using Flowing Software (http://flowingsoftware.btk.fi/). Cells were first gated in the forward- / side-scatter plot to exclude debries, followed by quadrant gating in plots using the fluorescence channels as shown above. For discrimination of live/dead cell discrimination cells in PBS were supplemented with 0.4 µL/mL propidium-iodide (5 mg/ml solution) followed by 5 min incubation on ice. Propidium iodide signal was recorded in the yellow channel.

CC[n+]1ccc(/C=C/C=C2\Sc3ccccc3N2CCCCCCN=[N+]=[N-])c2ccccc21.[I-] [6-AzTO-3, 4-((1E,3Z)-3-(3-(6-azidohexyl)benzo[d]thiazol-2(3H)-ylidene)prop-1-en-1-yl)-1-ethylquinolin-1-ium iodide]
aqueous solubility [1]: low | mean extinction coefficient ([2]; in DMSO, absorbance maximum at 639 nm): 110203 ± 1577 M⁻¹ cm⁻¹

CC[n+]1ccc(/C=C/C=C2\Sc3ccccc3N2CCCCCCN)c2ccccc21.O=C([O-])C(F)(F)F [6-NH2TO-3, mono(4-((1E,3Z)-3-(3-(6-ammoniohexyl)benzo[d]thiazol-2(3H)-ylidene)prop-1-enyl)-1-ethylquinolinium) mono(2,2,2-trifluoroacetate)]
mean extinction coefficient ([2]; in milli-Q water, absorbance maximum at 625 nm): 90043 ± 418 M⁻¹ cm⁻¹

CC[N+]1=c2cc3c(cc2CCC1)=Nc1cc2c(cc1O3)N(CCCC(=O)ON1C(=O)CCC1=O)C(C)(C)CC2CS(=O)(=O)[O-] (centres unmarked) [Atto 655, reference compound]
quantum yield [3]: 0.31 | quantum yield (lit.) [4]: 0.30

CN(C)c1ccc2cc3ccc(N(C)C)cc3nc2c1 [acridine orange]
Kd (dsDNACT): 36 µM

CC1(C)S[C@@H]2[C@H](NC(=O)[C@H](N)c3ccccc3)C(=O)N2[C@H]1C(=O)O [ampicillin]
sensitivity to antibiotic (E. coli): sensitive | sensitivity to antibiotic [5]: sensitive | sensitivity to antibiotic [6]: insensitive

O=C(N[C@H](CO)[C@H](O)c1ccc([N+](=O)[O-])cc1)C(Cl)Cl [chloramphenicol]
sensitivity to antibiotic (E. coli): sensitive | sensitivity to antibiotic [5]: sensitive | sensitivity to antibiotic [6]: insensitive

CN(C)c1ccc2nc3ccc(=[N+](C)C)cc-3sc2c1 [methylene blue]
Kd (dsDNACT): 46 µM

Alexa Fluor^® 647 [reference compound]
quantum yield [3]: 0.32 | quantum yield (lit.) [4]: 0.33

SyTO-9^™
colony formation of the stained bacteria (bacteria): reduced colony formation | bacterial growth in presence of dye [7]: delayed bacterial growth substantially | fluorescent labeling of live bacteria (FACS) [7]: efficient green-fluorescent labeling

carboxyfluorescein succinimidyl ester [CFSE]
bacterial growth in presence of dye [7]: compatible with bacterial growth | fluorescent labeling of live bacteria (FACS) [7]: hardly labeled bacteria
